{"source": "patent US10350231B2", "about": "“Use of cladribine for treating autoimmune inflammatory disease” (Chord Therapeutics S.a.r.l., priority 2014, dated 2019)", "key": {"[1]": {"molecular_target": "A2A (adenosine receptor class 2a) (Homo sapiens, UniProt P29274)", "sequence (P29274 whole entry)": "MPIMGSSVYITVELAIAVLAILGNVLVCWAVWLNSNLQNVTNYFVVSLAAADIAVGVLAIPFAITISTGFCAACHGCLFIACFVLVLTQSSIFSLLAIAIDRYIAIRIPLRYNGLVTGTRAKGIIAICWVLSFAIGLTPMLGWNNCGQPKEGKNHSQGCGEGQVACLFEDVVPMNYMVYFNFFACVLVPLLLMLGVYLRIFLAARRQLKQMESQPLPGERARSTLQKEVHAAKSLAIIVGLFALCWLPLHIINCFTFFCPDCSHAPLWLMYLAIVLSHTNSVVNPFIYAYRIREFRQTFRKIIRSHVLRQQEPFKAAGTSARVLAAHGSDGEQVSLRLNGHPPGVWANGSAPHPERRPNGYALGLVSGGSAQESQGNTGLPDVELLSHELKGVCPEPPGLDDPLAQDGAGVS", "conditions": "cited from earlier work"}, "[2]": {"tested_on": "T-lymphocytes from NMO patients", "experiment": "In vitro viability response of lymphocytes derived from NMO patients to cladribine", "format": "cell-based, human", "conditions": "cladribine 1×10^−9M to 1×10^−4M, e.g. four days; with or without anti-CD3/anti-CD28; compared with healthy donors", "excerpt": "Using the methods described in Laugel B. et al., J. Neuroimmunol.; (2011); 240-241; 52-57 peripheral blood mononuclear cells (PBMCs) are first isolated from blood obtained from healthy donors and NMO patients, for example by ficoll gradient centrifugation. T-lymphocytes are further purified from these PBMCs, by for example magnetic bead separation using a pan-T cell reagents, or CD4 reagents. […] To determine the cells' viability response to cladribine, identical numbers of lymphocytes purified from both healthy donor and NMO patients are cultured with one of a number of cladribine concentrations, ranging from for example one nanomolar to one hundred micromolar (1×10^−9M to 1×10^−4M), or without any cladribine. After a period of several days, for example four days, the fraction of live cells is determined, for example by annexin V staining or trypan blue staining. This experiment is done either under stimulated conditions (that is, with the addition of anti-CD3 and anti-CD28 antibodies in all cultures, as below) or without these stimulating antibodies."}, "[3]": {"tested_on": "neuromyelitis optica (NMO) patient", "experiment": "Case report of off-label treatment of NMO patient with cladribine", "format": "in vivo, human", "protocol": "A person presented with acute visual symptoms and optic neuritis with normal head MRI. Episodic visual symptoms recurred with increasing severity up to complete blindness in one eye and episodes of deterioration in the other. Some response to methylprednisolone was noted. The diagnostic test for NMO-IgG (ELISA) was positive and brain MRI had no focal lesions.\n20 mg of cladribine were administered subcutaneously to the patient on each of five dosing days, with one month or more separating the dosing days. On a dosing day, two vials were used each containing 10 ml of a solution of cladribine as shown in Example 2. Eight subcutaneous sites were used, each receiving an injection of 2.5 ml.\nAt the end of nine months blindness was complete bilaterally but motor and sensory functions were normal. […] After 2 years the patient was admitted with motor, sensory and autonomic symptoms. Based on new symptoms, abnormalities on spinal cord MRI and the previous NMO-IgG test the diagnosis was confirmed as neuromyelitis optica. After 3 months there was partial improvement but remaining mild paraparesis.\nPrior to cladribine treatment this patient experienced five episodes of worsening over four years (estimated annual relapse rate of 1.46). The intervening remission periods were 13, 15, 6 and 6 months. From initiation of an 8-month course of cladribine treatment they experienced 34 months of stable condition without reported relapses, followed by subsequent deterioration and other treatments."}, "[4]": {"tested_on": "human lymphocytes", "conditions": "phosphorylation by CK blocked, lymphocyte death does not occur; cited from earlier work"}, "[5]": {"tested_on": "T lymphocytes from NMO patients", "experiment": "Stimulated (anti-CD3/anti-CD28) cytokine secretion by T lymphocytes from NMO patients", "format": "cell-based, human", "conditions": "cladribine 1×10^−9M to 1×10^−4M, supernatants e.g. 24 hours, compared with healthy donors", "description": "Using the methods described in Laugel B. et al., J. Neuroimmunol.; (2011); 240-241; 52-57 peripheral blood mononuclear cells (PBMCs) are first isolated from blood obtained from healthy donors and NMO patients, for example by ficoll gradient centrifugation. T-lymphocytes are further purified from these PBMCs, by for example magnetic bead separation using a pan-T cell reagents, or CD4 reagents. The purified lymphocytes are maintained in culture using standard methods and reagents, for example RPMI-1640 growth medium.\nTo determine the effect of cladribine on stimulated cytokine secretion by T lymphocytes from NMO patients, identical numbers of purified lymphocytes purified from both healthy donor and NMO patients are pre-incubated for less than one hour in medium containing one of a number of cladribine concentrations, ranging from for example one nanomolar to one hundred micromolar (1×10^−9M to 1×10^−4M), or without added cladribine. Cells are then transferred, with their cladribine-containing or control medium, to the wells of culture plates coated with anti-CD3 antibody, and soluble anti-CD28 antibody is added. Secreted cytokines in culture supernatants collected after, for example, 24 hours, are determined by one of several standard methods including bead-based cytometric cytokine assay and enzyme-linked immunosorbent assay. […]"}, "[6]": {"tested_on": "IgM associated inflammatory peripheral neuropathy patient", "conditions": "intravenous infusion, two courses of cladribine, cited from earlier work"}, "[7]": {"tested_on": "NMO patients", "conditions": "cited from earlier work"}}, "note": "“Also recorded” adds a separate entry of the source.", "data": [{"molecule": "Nc1nc(Cl)nc2c1ncn2[C@H]1C[C@H](O)[C@@H](CO)O1", "note": "[cladribine, 2-chloro-2′-deoxyadenosine]", "values": [{"measurement": "affinity at A2A receptors", "setting": "[1]", "result": "binds with high affinity"}, {"measurement": "viability (fraction of live cells) of lymphocytes from NMO patients", "setting": "[2]", "result": "die over several days in a manner and to an extent similar to those purified from healthy donors"}, {"measurement": "disease course after cladribine treatment", "setting": "[3]; one NMO patient, single course 100 mg s.c., no further immunosuppressant treatment", "result": "two years without noted deterioration; also recorded: stabilization of the disease course for over two years"}, {"measurement": "adverse events attributed to cladribine", "setting": "[3]; one NMO patient, total 100 mg cladribine s.c.", "result": "No adverse events attributed to cladribine were reported"}, {"measurement": "stable condition without reported relapses", "setting": "[3]; one NMO patient, total 100 mg cladribine s.c., from initiation of an 8-month course", "result": 34, "unit": "months"}, {"measurement": "period of beneficial effects on the disease without retreatment", "setting": "[3]; short period of treatment (several weeks)", "result": "over 18 months"}, {"measurement": "induced cytokine production", "setting": "[4]", "result": "decreased"}, {"measurement": "secretion of cytokines by lymphocytes from NMO patients", "setting": "[5]", "result": "inhibited by cladribine in a manner and to a degree similar to the inhibition seen in lymphocytes from healthy donors"}, {"measurement": "IgM antibody levels", "setting": "[6]", "result": "IgM levels declined slowly over a period of more than one year"}, {"measurement": "symptoms", "setting": "[6]; maintained for several years", "result": "symptomatic improvement"}]}, {"molecule": "Glatiramer acetate", "values": [{"measurement": "effect on NMO", "setting": "[7]", "result": "has not been found to be effective"}]}, {"molecule": "O=C1c2c(O)ccc(O)c2C(=O)c2c(NCCNCCO)ccc(NCCNCCO)c21", "note": "[mitoxantrone]", "values": [{"measurement": "disease course under mitoxantrone", "setting": "[3]; same patient, after relapse following cladribine, impaired walking, neurogenic bladder, blindness", "result": "progressive deterioration"}]}]}
